Results reported in patent US10370339B2, “N-Methylbenzimidazoles as mIDH1 inhibitors” (BAYER PHARMA AKTIENGESELLSCHAFT, priority 2015, dated 2019).

Key:
[1] = target: IDH1 R132H enzyme (Homo sapiens (Human), UniProt O75874, R132H); assay: Mutant IDH1 R132H biochemical assay; conditions: NADPH consumption, luminescent readout; 1.5 nM enzyme, 1 μM NADPH, 250 μM α-KG, 30 minutes, 32° C.
Method: Mutant IDH1 R132H Biochemical Assay mIDH1 catalyzes the NADPH-dependent reduction of alpha-ketoglutarate (a-KG) to (2R)-2-hydroxyglutarate (2-HG). NADPH consumption was measured by luminescent readout.
The biochemical reactions were performed at 32° C. in 384-well plates using a reaction volume of 41 μL and the following assay buffer conditions: 50 mM Tris pH 7.5, 100 mM NaCl, 20 mM MgCl2, 0.05% BSA, 0.01% Brij, 1 μM NADPH, and 250 μM α-KG. The IDH1 R132H enzyme was used in a final concentration of 1.5 nM. Test compounds were used in a concentration range between 0.002 and 10 μM. The final DMSO concentration was 2.4%.
The reaction was incubated for 30 minutes, then 40 μL of detection mix (0.75 μg/ml Luciferase, 0.02 U/ml Oxidoreductase, 4 μg/mL FMN, 2 μL/ml decanal/ethanol, 50 mM Tris pH 7.5, 0.5% Glycerin, 0.01% Tween-20, 0.05% BSA) was added. Luminescence was measured on a luminescent reader (10 seconds measuring time, 1 second integration period, 30% sensitivity). The decrease in luminescence is proportional to mIDH1 activity. IC50 values are determined by interpolation from plots of relative luminescence versus inhibitor concentration.

[2] = target: Mutant IDH1 (LN229 R132H cells) (Homo sapiens (Human), UniProt O75874, R132H); assay: Mutant IDH1 cellular assay (2-HG levels in medium of LN229 R132H cells); assay type: cell-based; conditions: 2-HG production in LN229 R132H cells, 24 hours incubation, fluorescence readout
Mutant IDH1 (LN229 R132H cells), sequence (O75874 whole entry R132H): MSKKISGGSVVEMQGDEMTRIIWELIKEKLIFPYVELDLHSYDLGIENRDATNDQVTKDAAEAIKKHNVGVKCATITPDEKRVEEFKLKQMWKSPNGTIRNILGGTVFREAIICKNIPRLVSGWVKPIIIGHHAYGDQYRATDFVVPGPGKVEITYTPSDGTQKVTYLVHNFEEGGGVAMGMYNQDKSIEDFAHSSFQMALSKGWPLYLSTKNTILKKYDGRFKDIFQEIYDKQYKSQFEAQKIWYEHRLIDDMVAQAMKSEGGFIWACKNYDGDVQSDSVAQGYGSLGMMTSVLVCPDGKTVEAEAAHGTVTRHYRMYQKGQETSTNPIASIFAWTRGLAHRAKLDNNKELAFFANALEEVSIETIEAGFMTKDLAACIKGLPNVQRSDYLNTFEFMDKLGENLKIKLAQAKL
Method: Levels of (2R)-2-hydroxyglutarate (2HG) were measured in medium of a cell line with overexpression of mutated isocitrate dehydrogenase (mIDH) protein. mIDH catalyzes the NADPH-dependent reduction of alpha-ketoglutarate to 2-HG. Cells (LN229 R132H, Mohrenz et al., Apoptosis (2013) 18:1416-1425) were grown in DMEM containing 10% FCS. They were harvested by trypsin and seeded into 96-well plates. Cells were incubated overnight at 37° C. in 5% CO2. The next day test compounds were added to each cell well. The final concentration of DMSO was 0.1% and DMSO controls were included. The plates were then placed in an incubator for 24 hours.
2-HG was measured according to Balss et al. (Acta Neuropathol (2012) 124: 883-891). Briefly, HClO4 was added to each well and the plates were centrifuged. Aliquots are removed and incubated with hydroxyglutarate dehydrogenase (HGDH), diaphorase, NAD+, and resazurin. The conversion of resazurin to resorufin was detected by fluorescence spectroscopy at Ex 540 nm Em 600 nm. The increase in fluorescence is proportional to 2-HG production. IC50 values are determined by interpolation from plots of relative fluorescence vs inhibitor concentration.

IDH1 R132H enzyme, sequence (O75874 whole entry R132H): as above

| Structure (SMILES) | IC50 [1] [µM] | IC50 [2] [µM] |
| --- | --- | --- |
| COC(=O)c1ccc2c(c1)nc(Nc1ccc(OC(F)(F)F)cc1)n2[C@@H]1C[C@H](C)CC[C@H]1C(C)C [Example 2-1, methyl 1-[(1R,2S,5R)-2-isopropyl-5-methylcyclohexyl]-2-{[4-(trifluoromethoxy)-phenyl]amino}-1H-benzimidazole-5-carboxylate] | 0.12 |  |
| COC(=O)c1ccc2c(c1)nc(Nc1ccc(C(C)C)cc1)n2[C@@H]1C[C@H](C)CC[C@H]1C(C)C [Example 2-2] | 0.065 |  |
| COC(=O)c1cc2nc(Nc3ccc(C(C)C)cc3)n([C@@H]3C[C@H](C)CC[C@H]3C(C)C)c2cc1C [Example 2-5] | 0.04 |  |
| COC(=O)c1cc2nc(Nc3ccc(OC(C)C)cc3)n([C@@H]3C[C@H](C)CC[C@H]3C(C)C)c2cc1C [Example 2-6] | 0.22 |  |
| COC(=O)c1cc2nc(Nc3ccc(OC(F)(F)F)cc3)n([C@@H]3C[C@H](C)CC[C@H]3C(C)C)c2cc1OC [Example 2-7] | 0.1 |  |
| COC(=O)c1cc2nc(Nc3ccc(C(C)C)cc3)n([C@@H]3C[C@H](C)CC[C@H]3C(C)C)c2cc1OC [Example 2-8] | 0.13 |  |
| COC(=O)Cc1ccc2c(c1)nc(Nc1ccc(OC(F)(F)F)cc1)n2[C@@H]1C[C@H](C)CC[C@H]1C(C)C [Example 2-10] | 0.12 |  |
| COC(=O)Cc1ccc2c(c1)nc(Nc1ccc(C(C)C)cc1)n2[C@@H]1C[C@H](C)CC[C@H]1C(C)C [Example 2-11] | 0.08 |  |
| COC(=O)Cc1ccc2c(c1)nc(Nc1ccc(OC(C)C)cc1)n2[C@@H]1C[C@H](C)CC[C@H]1C(C)C [Example 2-12] | 0.3 |  |
| COC(=O)Cc1cc2nc(Nc3ccc(C(C)C)cc3)n([C@@H]3C[C@H](C)CC[C@H]3C(C)C)c2cc1C [Example 2-14] | 0.035 |  |
| COC(=O)Cc1cc2nc(Nc3ccc(OC(C)C)cc3)n([C@@H]3C[C@H](C)CC[C@H]3C(C)C)c2cc1C [Example 2-15] | 0.08 |  |
| COC(=O)Cc1cc2nc(Nc3ccc(OC(F)(F)F)cc3)n([C@@H]3C[C@H](C)CC[C@H]3C(C)C)c2cc1OC [Example 2-16] | 0.07 |  |
| COC(=O)Cc1cc2nc(Nc3ccc(C(C)C)cc3)n([C@@H]3C[C@H](C)CC[C@H]3C(C)C)c2cc1OC [Example 2-17] | 0.068 |  |
| COC(=O)CCc1ccc2c(c1)nc(Nc1ccc(OC(F)(F)F)cc1)n2[C@@H]1C[C@H](C)CC[C@H]1C(C)C [Example 2-19] | 0.095 |  |
| CC(C)Oc1ccc(Nc2nc3cc(C(=O)O)ccc3n2[C@@H]2C[C@H](C)CC[C@H]2C(C)C)cc1 [Example 2-24] | 0.013 |  |
| Cc1cc2c(cc1C(=O)O)nc(Nc1ccc(OC(F)(F)F)cc1)n2[C@@H]1C[C@H](C)CC[C@H]1C(C)C [Example 2-25] | 0.008 |  |
| COc1cc2c(cc1C(=O)O)nc(Nc1ccc(C(C)C)cc1)n2[C@@H]1C[C@H](C)CC[C@H]1C(C)C [Example 2-29] | 0.013 | 0.04 |
| COc1cc2c(cc1C(=O)O)nc(Nc1ccc(OC(C)C)cc1)n2[C@@H]1C[C@H](C)CC[C@H]1C(C)C [Example 2-30] |  | 0.084 |
| CC(C)c1ccc(Nc2nc3cc(CC(=O)O)ccc3n2[C@@H]2C[C@H](C)CC[C@H]2C(C)C)cc1 [Example 2-32] | 0.011 |  |
| CC(C)Oc1ccc(Nc2nc3cc(CC(=O)O)ccc3n2[C@@H]2C[C@H](C)CC[C@H]2C(C)C)cc1 [Example 2-33] | 0.045 |  |
| Cc1cc2c(cc1CC(=O)O)nc(Nc1ccc(OC(F)(F)F)cc1)n2[C@@H]1C[C@H](C)CC[C@H]1C(C)C [Example 2-34] | 0.0063 |  |
| Cc1cc2c(cc1CC(=O)O)nc(Nc1ccc(C(C)C)cc1)n2[C@@H]1C[C@H](C)CC[C@H]1C(C)C [Example 2-35] | 0.0083 |  |
| Cc1cc2c(cc1CC(=O)O)nc(Nc1ccc(OC(C)C)cc1)n2[C@@H]1C[C@H](C)CC[C@H]1C(C)C [Example 2-36] | 0.03 |  |
| COC(=O)CCc1cc2nc(Nc3ccc(OC(C)C)cc3)n([C@@H]3C[C@H](C)CC[C@H]3C(C)C)c2cc1OC [Example 2-44] | 0.62 |  |
| COC(=O)CCc1cc2nc(Nc3ccc(C(C)C)cc3)n([C@@H]3C[C@H](C)CC[C@H]3C(C)C)c2cc1OC [Example 2-45] | 0.18 |  |
| COc1cc2c(cc1CCC(=O)O)nc(Nc1ccc(OC(F)(F)F)cc1)n2[C@@H]1C[C@H](C)CC[C@H]1C(C)C [Example 2-46, 3-(1-[(1R,2S,5R)-2-isopropyl-5-methylcyclohexyl]-6-methoxy-2-{[4-(trifluoromethoxy)phenyl]amino}-1H-benzimidazol-5-yl)propanoic acid] | 0.015 |  |
| COc1cc2c(cc1CCC(=O)O)nc(Nc1ccc(OC(C)C)cc1)n2[C@@H]1C[C@H](C)CC[C@H]1C(C)C [Example 2-47] | 2.8 |  |

Continued by falling IC50 [1], values first:

| IC50 [1] [µM] | IC50 [2] [µM] | Structure (SMILES) |
| --- | --- | --- |
| 0.38 |  | COC(=O)CCc1ccc2c(c1)nc(Nc1ccc(OC(C)C)cc1)n2[C@@H]1C[C@H](C)CC[C@H]1C(C)C [Example 2-21] |
| 0.28 |  | COC(=O)c1cc2nc(Nc3ccc(OC(C)C)cc3)n([C@@H]3C[C@H](C)CC[C@H]3C(C)C)c2cc1OC [Example 2-9] |
| 0.2 |  | COC(=O)c1ccc2c(c1)nc(Nc1ccc(OC(C)C)cc1)n2[C@@H]1C[C@H](C)CC[C@H]1C(C)C [Example 2-3] |
| 0.19 |  | COC(=O)CCc1cc2nc(Nc3ccc(OC(F)(F)F)cc3)n([C@@H]3C[C@H](C)CC[C@H]3C(C)C)c2cc1OC [Example 2-43, methyl 3-(1-[(1R,2S,5R)-2-isopropyl-5-methylcyclohexyl]-6-methoxy-2-{[4-(tri-fluoromethoxy)phenyl]amino}-1H-benzimidazol-5-yl)propanoate] |
| 0.13 |  | COC(=O)CCc1ccc2c(c1)nc(Nc1ccc(C(C)C)cc1)n2[C@@H]1C[C@H](C)CC[C@H]1C(C)C [Example 2-20] |
| 0.12 |  | COC(=O)Cc1cc2nc(Nc3ccc(OC(C)C)cc3)n([C@@H]3C[C@H](C)CC[C@H]3C(C)C)c2cc1OC [Example 2-18] |
| 0.07 |  | COc1cc2c(cc1CC(=O)O)nc(Nc1ccc(OC(C)C)cc1)n2[C@@H]1C[C@H](C)CC[C@H]1C(C)C [Example 2-39] |
| 0.045 |  | COC(=O)Cc1cc2nc(Nc3ccc(OC(F)(F)F)cc3)n([C@@H]3C[C@H](C)CC[C@H]3C(C)C)c2cc1C [Example 2-13] |
| 0.023 |  | COc1cc2c(cc1CC(=O)O)nc(Nc1ccc(OC(F)(F)F)cc1)n2[C@@H]1C[C@H](C)CC[C@H]1C(C)C [Example 2-37] |
| 0.016 | 0.038 | COc1cc2c(cc1C(=O)O)nc(Nc1ccc(OC(F)(F)F)cc1)n2[C@@H]1C[C@H](C)CC[C@H]1C(C)C [Example 2-28] |
| 0.015 |  | Cc1cc2c(cc1C(=O)O)nc(Nc1ccc(OC(C)C)cc1)n2[C@@H]1C[C@H](C)CC[C@H]1C(C)C [Example 2-27] |
| 0.015 |  | CC(C)[C@@H]1CC[C@@H](C)C[C@H]1n1c(Nc2ccc(OC(F)(F)F)cc2)nc2cc(CCC(=O)O)ccc21 [Example 2-40] |
| 0.012 |  | COc1cc2c(cc1CC(=O)O)nc(Nc1ccc(C(C)C)cc1)n2[C@@H]1C[C@H](C)CC[C@H]1C(C)C [Example 2-38] |
| 0.012 |  | CC(C)c1ccc(Nc2nc3cc(CCC(=O)O)ccc3n2[C@@H]2C[C@H](C)CC[C@H]2C(C)C)cc1 [Example 2-41] |
| 0.012 |  | CC(C)Oc1ccc(Nc2nc3cc(CCC(=O)O)ccc3n2[C@@H]2C[C@H](C)CC[C@H]2C(C)C)cc1 [Example 2-42] |
| 0.0075 |  | Cc1cc2c(cc1C(=O)O)nc(Nc1ccc(C(C)C)cc1)n2[C@@H]1C[C@H](C)CC[C@H]1C(C)C [Example 2-26] |
| 0.0063 |  | CC(C)c1ccc(Nc2nc3cc(C(=O)O)ccc3n2[C@@H]2C[C@H](C)CC[C@H]2C(C)C)cc1 [Example 2-23] |
| 0.004 |  | CC(C)[C@@H]1CC[C@@H](C)C[C@H]1n1c(Nc2ccc(OC(F)(F)F)cc2)nc2cc(C(=O)O)ccc21 [Example 2-22, 1-[(1R,2S,5R)-2-isopropyl-5-methylcyclohexyl]-2-{[4-(trifluoromethoxy)phenyl]-amino}-1H-benzimidazole-5-carboxylic acid] |
